Source: patent publication US20030181376A1, “Control of crop pests & animal parasites through direct neuronal uptake” (priority 2000, published 2003)
Like-named read-outs stand apart in the source and are kept apart here.

Legend:
Assay type in all cases: in vivo
Heterodera glycines = assay: Behavioural bioassay: orientation of H. glycines juveniles to an attractant disc (root exudate) after pre-incubation; conditions: for EC50: read-out: concentration giving 50% reduction in attraction of H. glycines to an attractant
Method: This assay was modified from that used by Grundler et al (Parasitology 103, 149-155; 1991). Soybean plants were grown in pots containing perlite in a tropical glasshouse until the root system was well established. Plants were carefully washed free of the perlite in running water and then several plants were placed in 200 cm3 dH2O in a conical flask which was covered in foil to keep light off the roots and then incubated in a Sanyo plant growth cabinet (16 hr light 24° C., 8 hr dark 20° C.) for 48hrs. The root exudate was collected and filter sterilised through 0.45 μm syringe filter.
Agarose discs covered in either dH2O or root exudate were made as follows. Agarose (3 ml, 1.5% solution made in dH2O) was poured into 6 cm petri dishes and allowed to surface dry. One ml of root exudate or dH2O was pipetted onto the plates, the surface covered by swirling and then left to completely evaporate. A cork borer was used to cut out 6 mm discs from the plate.
The oxime carbamate nematicide Aldicarb was obtained by putting 1 g Temik (10G, Rhône-Poulenc), in 10 ml chloroform to dissociate the oxime carbamate from its inert carrier. After 1 hour particulate material was removed by centrifugation. 100, 10 or 1 μl aliquots of the chloroform/aldicarb solution were pipetted into 1.5 ml microtubes and left to evaporate in a fume hood. This leaves 1, 0.1 and 0.01 mg aldicarb respectively in each tube. Addition of 1 ml dH2O to these tubes provides solutions of […] respectively.
Aliquots of juveniles of H. glycines were incubated for 16 hours in a range of concentrations of aldicarb, or in peptides generated that recognise the same acetylcholinesterase (AChE) target as aldicarb (see example IV). The effect of different concentrations of aldicarb or peptides on chemoreception was measured. Control worms were incubated in either water or PBS for the peptide experiments.
Treated nematode juveniles (approximately 300) in small volumes (typically 20 μl) dH2O were placed in the centre of 3.5 cm diameter petri dishes containing 1.5 ml 1.5% agarose. After evaporation of the water the worms were left for 1 hour to randomly distribute over the plate. A root exudate and a water agarose test disc were placed onto the plate equally spaced (5 mm) from the centre. The plates were left for 1 hour at room temperature in the dark. The experiments were carried out in replicates of 8-10 per concentration of aldicarb or peptide assayed. Controls in which nematodes were not treated with any chemical or peptide mimetic were also used for each experimental day to obtain a 100% rate of attraction. This allowed measurements of the extent of chemoattraction mediated by a test compound on any day.
The number of worms under each disc was counted using a dissecting microscope. In control experiments typically 2-4 times as many worms were counted under the root exudate disc as were under the water control disc. The numbers of responders minus the number under the control disc was used to calculate a response. With ˜300 animals on the plate the difference was around 40-80. The difference between the numbers under the attractant and the control discs was used to define the maximum response on that day of experiments.
Various concentrations of these compounds were tested with a modified bioassay. The data sets were analysed using probit analysis within a standard statistical package (SPSS) installed on a personal computer. […] Even higher concentrations of aldicarb and both AChE binding peptides were needed to inhibit movement than required to disrupt chemoreception.
Freshly hatched H. glycines were incubated for 16 hours at room temperature in various concentrations of Levamisole. They were tested using the bioassay in example 3.

Globodera pallida = assay: Behavioural bioassay: orientation of G. pallida to an attractant disc (50 mM ZnCl2) after pre-incubation; conditions: 16 h pre-treatment at 1.242×10^−8 M
Method: (§1) The number of worms under each disc was counted using a dissecting microscope. […] The numbers of responders minus the number under the control disc was used to calculate a response. […] The difference between the numbers under the attractant and the control discs was used to define the maximum response on that day of experiments.
(§2) 50 mM CaCl2 was used as an attractant with the agarose discs. Those assays were carried out at 27° C. […] The peptide was also tested against the potato cyst nematode Globodera pallida using the same methods as described for H. glycines. G. pallida was incubated for 16 h in a solution containing the constrained peptide at 1.242×10^−8 M at room temperature. […]

[1] = test system: Heterodera glycines and Globodera pallida; assay: Behavioural bioassay, pooled data of H. glycines and G. pallida after pre-incubation in levamisole mimetic peptide; conditions: 16 h pre-treatment at 1×10^−6 M; data of two species pooled; values>1 indicate a chemoreceptive response
Method: as §1, §2

[2] = incubation for 16 hours, probit analysis

c1ccc([C@H]2CN3CCSC3=N2)cc1 [Levamisole]
signs of paralysis (Heterodera glycines; 16 hours at room temperature in various concentrations): did not show any signs of paralysis
inhibition of chemoreception (Heterodera glycines; 16 hours at room temperature in various low concentrations, FIG. 5): inhibit chemoreception in a dose-dependent manner

CNC(=O)O/N=C/C(C)(C)SC [aldicarb, Aldicarb]
disruption of chemosensory attraction relative to paralysis (Heterodera glycines; H. glycines, 16 hours incubation): disrupt chemosensory attraction completely at concentrations lower than those which cause paralysis
EC50 (Heterodera glycines; Heterodera glycines, 16 h): 0.0011 ± 0.00306 nM

CHNSHIRWC [control peptide]
loss of chemoreception (Heterodera glycines; incubation at 2 μM): no loss of chemoreception

CSINWRHHC [constrained 7 mer peptide]
EC50 (Heterodera glycines; [2]): 2.16 nM
mean value ratio of nematodes under the disc with the attractant rather than without it (Globodera pallida; room temperature, bioassay at 20° C., 50 mM ZnCl2, values>1 indicate a chemoreceptive response): 0.77±0.08
ratio of nematodes under attractant disc versus control disc, 3 hours after the start of the bioassay (Globodera pallida; 3 hours after start of the bioassay): 0.78±0.06

CTTMHPRLC
ratio of nematodes under attractant disc versus control disc, 3 hours after the start of the bioassay (Heterodera glycines; H. glycines, 16 h pre-treatment at 1×10^−6 M, 3 hours after start of the bioassay): 1.24±0.11
mean value ratio of nematodes under the disc with the attractant rather than without it [1]: 1.03±0.11

SVSVGMKPSPRP [linear 12 mer peptide]
EC50 (Heterodera glycines; [2]): 3680 nM
